Assay results reported in patent US20080182848A1, “Novel Process” (priority 2005, published 2008).

Assay: solubility in the mobile phase (isopropanol)
Type: physicochemical
Conditions: organic solvent or mixture; crude material; isopropanol as the mobile phase
Procedure: Racemic zopiclone was subjected to preparative chromatography using Chiralcel® OD as the stationery phase and isopropanol as the mobile phase. Under these conditions the crude material has a good solubility in the mobile phase (>1.0 g/liter) and the typical retention time for the R-isomer is 12.3 minutes and for the S-isomer is 17.8 minutes. Some physico-chemical properties of the S-zopiclone obtained are set out in table 1.

**Q.** Which solubility does the source give for `CN1CCN(C(=O)OC2c3nccnc3C(=O)N2c2ccc(Cl)cn2)CC1` (racemic) [Racemic zopiclone, (±) of 6-(5-chloro-2-pyridinyl)-6,7-dihydro-7-oxo-5H-pyrrolo-[3,4b]-pyrazin-5-yl-4-methylpiperazine-1-caboxylate] here?
**A.** > 1000 µg/mL
